Experimental data from ChEMBL document CHEMBL1833860 (Bioorg Med Chem Lett, 2011).
≈ marks a conversion by molar mass, not a printed value.

How the values were obtained:
[1] = Dissociation constant, pKa of the compound; assay type: physicochemical
[2] = Volume of distribution at steady state in rat at 1 mg/kg, iv and 3 mg/kg, po; assay type: ADME, organism-based; details: in vivo, read-out: Vdss
[3] = Oral bioavailability in rat at 3 mg/kg; assay type: ADME, organism-based; details: in vivo
[4] = Half life in rat at 1 mg/kg, iv and 3 mg/kg, po; assay type: ADME, organism-based; details: in vivo
[5] = Clearance in rat at 1 mg/kg, iv and 3 mg/kg, po; assay type: ADME, organism-based; details: in vivo
[6] = Distribution coefficient, log D of compound; assay type: physicochemical; details: octanol/water
[7] = Aqueous solubility of compound in fed state simulated intestinal fluid at pH 6.5; assay type: physicochemical

SMILES | pKa [1] | Vd [2] [L/kg] | bioavailability [3] [%] | half-life [4] [h] | clearance [5] [mL/min/kg] | logD [6] | solubility [7] [µg/mL]
Cc1cccc(Nc2nc(N[C@@H]3CCCC[C@@H]3N)ncc2C(N)=O)c1 | 9.4 |  |  |  |  |  | 
Cc1cccc(Nc2nc(N[C@@H]3CCOC[C@@H]3N)ncc2C(N)=O)c1 | 8.1 | 4 | 14 | 1.9 | 32 |  | 
Cc1ccc(Nc2nc(N[C@@H]3CCOC[C@@H]3N)ncc2C(N)=O)cc1 |  | 4.1 | 30 | 4.2 | 16 | 0.9 | 420 (≈ 1230 µM)
COc1ccc(Nc2nc(N[C@@H]3CCOC[C@@H]3N)ncc2C(N)=O)cc1 |  | 3.9 | 10 | 2.3 | 45 |  | 
Cc1cccc(Nc2nc(N[C@@H]3CC(F)(F)CC[C@@H]3N)ncc2C(N)=O)c1 (racemic) | 7.9 |  |  |  |  |  | 
